# Structures can show the parent of a compound that is named as a salt.
# Molecular target: T1, Syk tyrosine kinase (Homo sapiens, UniProt P43405)
# T1 construct: purchased Carna Biosciences, Inc
# Assay: Test for Syk tyrosine kinase inhibitory activity (ELISA)
# Type: biochemical
# Details: Syk tyrosine kinase (Carna Biosciences), 25 μM ATP in substrate solution, 30° C. 1 hour, n=2; read-out: Evaluation (IC50, concentration inhibiting the tyrosine kinase activity at 50%)
# Summary of the method: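 Syk kinase (0.025 nM stock before addition) with 625 nM biotinylated peptide and 25 μM ATP (substrate-solution levels) in Tris pH 7.5, MgCl2, DTT; 1 h at 30 °C on streptavidin plates. Phosphotyrosine detected by HRP anti-pTyr antibody, TMB, A450; IC50 by non-linear regression.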
row,Compound,IC50 [nM]
1,"N#Cc1ccnc(Nc2cc(C3CC3)cc(-c3cncc(N4CCC[C@H](O)C4)c3)n2)c1 [Example 112, 2-({4-cyclopropyl-5′-[(3S)-3-hydroxypiperidin-1-yl]-2,3′-bipyridin-6-yl}amino)pyridine-4-carbonitrile hydrochloride]",< 5
2,"N#Cc1ccnc(Nc2cc(C3CC3)cc(-c3cncc(N4CCC[C@@H](O)C4)c3)n2)c1 [Example 113, 2-({4-cyclopropyl-5′-[(3R)-3-hydroxypiperidin-1-yl]-2,3′-bipyridin-6-yl}amino)pyridine-4-carbonitrile hydrochloride]",5 to 50
3,"Cn1cc(-c2cncc(-c3cc(C4CC4)cc(Nc4cc(C#N)ccn4)n3)c2)cn1 [Example 114, 2-{[4-cyclopropyl-5′-(1-methyl-1H-pyrazol-4-yl)-2,3′-bipyridin-6-yl]amino}pyridine-4-carbonitrile hydrochloride]",50 to 500
4,"N#Cc1ccnc(Nc2cc(C3CC3)cc(-c3cncc(N4CCNC(=O)C4)c3)n2)c1 [Example 115, 2-{[4-cyclopropyl-5′-(3-oxopiperazin-1-yl)-2,3′-bipyridin-6-yl]amino}pyridine-4-carbonitrile]",< 5
5,"N#Cc1ccnc(Nc2cc(C3CC3)cc(-c3cncc(N4CCC(O)CC4)c3)n2)c1 [Example 116, 2-{[4-cyclopropyl-5′-(4-hydroxypiperidin-1-yl)-2,3′-bipyridin-6-yl]amino}pyridine-4-carbontrile hydrochloride]",5 to 50
6,"N#Cc1ccnc(Nc2cc(C3CC3)cc(-c3ccc4c(c3)ncn4C(CO)CO)n2)c1 [Example 117, 2-({4-cyclopropy-6-[1-(1,3-dihydroxypropan-2-yl)-1H-benzimidazol-5-yl)]pyridin-2-yl}amino)pyridine-4-carbonitrile hydrochloride]",5 to 50
7,"CC(C)(O)Cn1cnc2cc(-c3cc(C4CC4)cc(Nc4cc(C#N)ccn4)n3)ccc21 [Example 118, 2-({4-cyclopropyl-6-[1-(2-hyroxy-2-methylpropyl)-1H-benzimidazol-5-yl]pyridin-2-yl}amino)pyridine-4-carbonitrile hydrochloride]",50 to 500
8,"CC(C)(CO)Cn1cnc2cc(-c3cc(C4CC4)cc(Nc4cc(C#N)ccn4)n3)ccc21 [Example 119, 2-({4-cyclopropyl-6-[1-(3-hydroxy-2,2-dimethylpropyl)-1H-benzimidazol-5-yl]pyridin-2-yl}amino)pyridine-4-carbonitrile hydrochloride]",50 to 500
9,"N#Cc1ccnc(Nc2cc(C3CC3)cc(-c3ccc4c(c3)ncn4CC3(O)CCCCC3)n2)c1 [Example 120, 2-[(4-cyclopropyl-6-{1-[(1-hydroxycyclohexyl)methyl]-1H-benzimidazol-5-yl}pyridin-2-yl)amino]pyridine-4-carbonitrile hydrochloride]",50 to 500
10,"N#Cc1ccnc(Nc2cc(C3CC3)cc(-c3ccc4c(c3)ncn4CCCO)n2)c1 [Example 121, 2-({4-cyclopropyl-6-[1-(3-hydroxypropyl)-1H-benzimidazol-5-yl]pyridin-2-yl}amino)pyridine-4-carbonitrile hydrochloride]",50 to 500
11,"N#Cc1ccnc(Nc2cc(C3CC3)cc(-c3ccc4ncn([C@H]5CC[C@H](O)CC5)c4c3)n2)c1 [Example 122, 2-({4-cyclopropyl-6-[1-(trans-4-hydroxycyclohexyl)-1H-benzimidazol-6-yl]pyridin-2-yl}amino)pyridine-4-carbonitrile hydrochloride]",< 5
12,"CCOC(=O)CCn1cnc2cc(-c3cc(C4CC4)cc(Nc4cc(C#N)ccn4)n3)ccc21 [Example 123, ethyl 3-(5-{6-[(4-cyanopyridin-2-yl)amino]-4-cyclopropylpyridin-2-yl}-1H-benzimidazol-1-yl)propanonate hydrochloride]",50 to 500
13,"CN(C)C(=O)CCn1cnc2ccc(-c3cc(C4CC4)cc(Nc4cc(C#N)ccn4)n3)cc21 [Example 125, 3-(6-{6-[(4-cyanopyridin-2-yl)amino]-4-cyclopropylpyridin-2-yl}-1H-benzimadazol-1-yl)-N,N-dimethylpropanamide hydrochloride]",50 to 500
14,"COC(=O)CCn1cnc2ccc(-c3cc(C4CC4)cc(Nc4cc(C#N)ccn4)n3)cc21 [Example 126, methyl 3-(6-{6-[(4-cyanopyridin-2-yl)amino]-4-cyclopropylpyridin-2-yl}1H-benzimidazol-1-yl)propanonate hydrochloride]",50 to 500
15,"N#Cc1ccnc(Nc2cc(C3CC3)cc(-c3ccc4ncn(CCCCO)c4c3)n2)c1 [Example 127, 2-({4-cyclopropyl-6-[1-(4-hydroxybutyl)-1H-benzimidaxol-6-yl]pyridin-2-yl}amino)pyridine-4-carbonitrile hydrochloride]",5 to 50
16,"N#Cc1ccnc(Nc2cc(C3CC3)cc(-c3ccc4c(c3)ncn4CCC(N)=O)n2)c1 [Example 129, 3-(5-{6-[(4-cyanopyridin-2-yl)amino]-4-cyclopropylpyridin-2-yl}-1H-benzimidazol-1-yl)propanamide hydrochloride]",5 to 50

row,Compound,IC50 [nM]
1,"N#Cc1ccnc(Nc2cc(C3CC3)cc(-c3ccc4ncn(Cc5cccnc5)c4c3)n2)c1 [Example 130, 2-({4-cyclopropyl-6-[1-(pyridin-3-ylmethyl)-1H-benzimidazol-6-yl]pyridin-2-yl}amino)pyridine-4-carbonitrile hydrochloride]",50 to 500
2,"CN(C)C(=O)CCn1cnc2cc(-c3cc(C4CC4)cc(Nc4cc(C#N)ccn4)n3)ccc21 [Example 131, 3-(5-{6-[(4-cyanopyridin-2-yl)amino]-4-cyclopropylpyridin-2-yl}-1H-benzimidazol-1-yl)-N,N-dimethylproanamide hydrochloride]",50 to 500
3,"CNC(=O)CCn1cnc2cc(-c3cc(C4CC4)cc(Nc4cc(C#N)ccn4)n3)ccc21 [Example 132, 3-(5-{6-[(4-cyanopyridin-2-yl)amino]-4-cyclopropylpyridin-2-yl}-1H-benzimidazol-1-yl)-N-methylpropanamide hydrochloride]",50 to 500
4,"N#Cc1ccnc(Nc2cc(C3CC3)cc(-c3ccc4ncn(Cc5ccncc5)c4c3)n2)c1 [Example 133, 2-({4-cyclopropyl-6-[1-(pyridin-4-ylmethyl)-1H-benzimidazol-6-yl]pyridin-2-yl}amino)pyridine-4-carbonitrile hydrochloride]",5 to 50
5,"N#CCCn1cnc2cc(-c3cc(C4CC4)cc(Nc4cc(C#N)ccn4)n3)ccc21 [Example 134, 2-({6-[1-(2-cyanoethyl)-1H-benzimidazol-5-yl]-4-cyclopropylpyridin-2-yl}amino)pyridine-4-carbonitrile hydrochloride]",5 to 50
6,"N#Cc1ccnc(Nc2cc(C3CC3)cc(-c3ccc4ncn(C5(CO)CCCCC5)c4c3)n2)c1 [Example 135, 2-[(4-cyclopropyl-6-(1-[1-(hydroxymethyl)cyclohexyl]-1H-benzimidazol-6-yl)pyridin-2-yl)amino]pyridine-4-carbonitrile hydrochloride]",5 to 50
7,"N#Cc1ccnc(Nc2cc(C3CC3)cc(-c3ccc4ncn(C5CCC(F)(F)CC5)c4c3)n2)c1 [Example 136, 2-({4-cyclopropyl-6-[1-(4,4-difluorocyclohexyl)-1H-benzimidazol-6-yl]pyridine-2-yl}amino)pyridine-4-carbonitrile hydrochloride]",50 to 500
8,"N#Cc1ccnc(Nc2cc(C3CC3)cc(-c3ccc4c(c3)ncn4Cc3ccccc3)n2)c1 [Example 137, 2-{[6-(1-benzyl-1H-benzimidazol-5-yl)-4-cyclopropylpyridin-2-yl]amino}pyridine-4-carbonitrile hydrochloride]",50 to 500
9,"CO[C@H]1CC[C@H](n2cnc3ccc(-c4cc(C5CC5)cc(Nc5cc(C#N)ccn5)n4)cc32)CC1 [Example 138, 2-({4-cyclopropyl-6-[1-(trans-4-methoxycyclohexyl)-1H-benzimidazol-6-yl]pyridin-2-yl}amino)pyridine-4-carbonitrile hydrochloride]",50 to 500
10,"N#Cc1ccnc(Nc2cc(C3CC3)cc(-c3ccc4ncn(C5CCOCC5)c4c3)n2)c1 [Example 139, 2-({4-cyclopropyl-6-[1-(tetrahydro-2H-pyran-4-yl)-1H-benzimidazol-6-yl]pyridin-2-yl}amino)pyridine-4-carbonitrile hydrochloride]",5 to 50
11,"N#Cc1ccnc(Nc2cc(C3CC3)cc(-c3ccc4ncn(C5CCCC5O)c4c3)n2)c1 (stereo not drawn) [Example 140, 2-[(4-cyclopropyl-6-{1-[trans-2-hydroxycyclopenyl]-1H-benzimidazol-6-yl}pyridine-2-yl)amino]pyridine-4-carbonitrile hydrochloride]",5 to 50
12,"CCn1cnc2ccc(-c3cc(C4CC4)cc(Nc4cc(C#N)ccn4)n3)cc21 [Example 142, 2-{[4-cyclopropyl-6-(1-ethyl-1H-benzimidazol-6-yl)pyridin-2-yl]amino}pyridine-4-carbonitrile hydrochloride]",50 to 500
13,"N#Cc1ccnc(Nc2cc(C3CC3)cc(-c3ccc4ncn(C(CO)CO)c4c3)n2)c1 [Example 143, 2-({4-cyclopropyl-6-[1-(1,3-dihydroxypropan-2-yl)-1H-benzimidazol-6-yl]pyridin-2-yl}amino)pyridine-4-carbonitrile hydrochloride]",5 to 50
14,"CC(C)(O)Cn1cnc2ccc(-c3cc(C4CC4)cc(Nc4cc(C#N)ccn4)n3)cc21 [Example 144, 2-({4-cyclopropyl-6-[1-(2-hydroxy-2-methylpropyl)-1H-benzimidazol-6-yl]pyridin-2-yl}amino)pyridine-4-carbonitrile hydrochloride]",50 to 500
15,"N#Cc1ccnc(Nc2cc(C3CC3)cc(-c3ccc4ncn([C@H]5CC[C@@H](O)CC5)c4c3)n2)c1 [Example 145, 2-({4-cyclopropyl-6-[1-(cis-4-hydroxycyclohexyl)-1H-benzimidazol-6-yl]pyridin-2-yl}amino)pyridine-4-carbonitrile hydrochloride]",5 to 50
